Values of other authors in US20180256623A1, “COMPOSITIONS AND METHOD FOR REGULATING ADIPOSE TISSUE LIPOLYSIS, INSULIN-RESISTANCE, AND HYPERGLYCEMIA” (University of Virginia Patent Foundation, priority 2015, published 2018).

System: white adipose tissue organ cultures
Details: cited from earlier work

CN(C)C(=O)Nc1cccc(-c2ccc(N(C)C)cc2)c1 [Atglistatin, N′-[4′-(dimethylamino) [1,1′-biphenyl]-3-yl]-N,N-dimethyl-urea]
lipolysis by ATGL (fatty acid mobilization): blocks lipolysis
